Experimental data: ChEMBL document CHEMBL4425190, “Rat intestinal sucrase inhibited by minor constituents from the leaves and twigs of Archidendron clypearia (Jack.) Nielsen” (Bioorg Med Chem Lett, 2016)

biological target: Sucrase-isomaltase, intestinal (Rattus norvegicus) (UniProt P23739); details: 0.02 mM
Sequence (P23739 1-1013 limits assumed): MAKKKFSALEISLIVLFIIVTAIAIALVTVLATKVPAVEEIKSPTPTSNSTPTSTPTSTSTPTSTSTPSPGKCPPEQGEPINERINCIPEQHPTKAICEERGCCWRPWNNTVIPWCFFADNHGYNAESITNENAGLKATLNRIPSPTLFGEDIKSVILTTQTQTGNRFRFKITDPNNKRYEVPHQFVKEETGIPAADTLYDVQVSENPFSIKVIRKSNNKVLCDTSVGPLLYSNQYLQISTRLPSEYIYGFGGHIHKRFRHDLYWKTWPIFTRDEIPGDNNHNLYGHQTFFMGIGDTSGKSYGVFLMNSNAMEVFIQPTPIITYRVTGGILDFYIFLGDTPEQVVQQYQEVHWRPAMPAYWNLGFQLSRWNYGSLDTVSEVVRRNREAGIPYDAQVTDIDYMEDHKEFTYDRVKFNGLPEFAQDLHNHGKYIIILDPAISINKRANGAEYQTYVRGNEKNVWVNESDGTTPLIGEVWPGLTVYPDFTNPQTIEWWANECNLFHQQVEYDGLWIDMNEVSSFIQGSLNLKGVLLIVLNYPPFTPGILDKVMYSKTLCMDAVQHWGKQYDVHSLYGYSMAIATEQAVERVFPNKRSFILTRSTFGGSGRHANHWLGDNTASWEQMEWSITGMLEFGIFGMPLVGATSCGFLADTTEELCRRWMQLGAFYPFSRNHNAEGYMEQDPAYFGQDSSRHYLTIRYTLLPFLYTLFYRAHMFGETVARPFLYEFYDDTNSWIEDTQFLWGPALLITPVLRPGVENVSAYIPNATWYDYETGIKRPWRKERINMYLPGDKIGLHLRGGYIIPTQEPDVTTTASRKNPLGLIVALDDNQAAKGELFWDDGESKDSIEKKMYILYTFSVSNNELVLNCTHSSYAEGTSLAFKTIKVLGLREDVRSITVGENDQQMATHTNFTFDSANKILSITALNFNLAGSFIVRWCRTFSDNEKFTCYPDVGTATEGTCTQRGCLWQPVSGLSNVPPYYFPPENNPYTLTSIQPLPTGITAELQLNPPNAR
Sequence (P23739 1014-1841 limits assumed): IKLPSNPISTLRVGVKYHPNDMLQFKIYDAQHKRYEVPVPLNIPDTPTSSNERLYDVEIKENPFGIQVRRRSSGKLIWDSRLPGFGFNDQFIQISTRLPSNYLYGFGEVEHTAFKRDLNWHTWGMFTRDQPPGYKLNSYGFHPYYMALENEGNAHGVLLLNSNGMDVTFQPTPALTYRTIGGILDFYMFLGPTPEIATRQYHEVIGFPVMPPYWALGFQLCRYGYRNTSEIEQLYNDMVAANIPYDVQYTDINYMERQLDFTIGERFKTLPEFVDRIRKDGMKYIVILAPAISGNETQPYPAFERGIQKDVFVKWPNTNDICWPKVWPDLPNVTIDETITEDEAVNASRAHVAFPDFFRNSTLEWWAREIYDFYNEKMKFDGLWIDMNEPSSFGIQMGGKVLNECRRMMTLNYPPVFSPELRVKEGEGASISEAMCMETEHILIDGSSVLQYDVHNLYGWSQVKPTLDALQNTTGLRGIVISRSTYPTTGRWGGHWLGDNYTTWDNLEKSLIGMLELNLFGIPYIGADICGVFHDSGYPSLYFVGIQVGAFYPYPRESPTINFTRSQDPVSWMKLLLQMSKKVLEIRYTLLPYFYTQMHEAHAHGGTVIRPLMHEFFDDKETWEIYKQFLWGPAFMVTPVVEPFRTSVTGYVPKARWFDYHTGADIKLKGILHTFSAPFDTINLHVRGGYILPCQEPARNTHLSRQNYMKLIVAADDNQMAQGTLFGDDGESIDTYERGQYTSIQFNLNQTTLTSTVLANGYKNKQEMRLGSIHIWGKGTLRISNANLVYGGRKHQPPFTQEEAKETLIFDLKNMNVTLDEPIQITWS
Description: Inhibition of rat small intestinal sucrase using sucrose as substrate assessed as amount of liberated glucose at 0.02 mM after 30 mins by glucose oxidase method

SMILES | inhibition [%]
C[C@H]1O[C@H](O[C@H]2[C@H](O)[C@@H](O)[C@@H](O[C@H]3[C@H](O)[C@@H](O)C(O)O[C@@H]3CO)O[C@@H]2CO)[C@H](O)[C@@H](O)[C@@H]1N[C@H]1C=C(CO)[C@@H](O)[C@H](O)[C@H]1O (stereo not given in full) | 89.5

biological target: Sucrase-isomaltase, intestinal (Rattus norvegicus) (UniProt P23739); test: Inhibition of rat small intestinal sucrase using sucrose as substrate assessed as amount of liberated glucose at 1 mM after 30 mins by glucose oxidase method; details: not given

SMILES | inhibition [%]
COc1cc([C@@H]2c3c(cc(OC)c(O)c3OC)C[C@H](CO)[C@H]2CO[C@@H]2O[C@H](CO)[C@@H](O)[C@H](O)[C@H]2O)cc(OC)c1O | 66.3
COc1cc(/C=C/CO)ccc1O[C@@H]1O[C@H](CO)[C@@H](O)[C@H](O)[C@H]1O | 11
C[C@](O)(CC(=O)O)CC(=O)O[C@@H]1[C@@H](O)[C@H](OCc2ccccc2)O[C@H](CO)[C@H]1O | 88.4
CC1=CC(=O)CC(C)(C)[C@@]1(O)/C=C/[C@@H](C)O[C@@H]1O[C@H](CO)[C@@H](O)[C@H](O)[C@H]1O | 23.7
COc1cc(C[C@H]2CO[C@H](c3cc(OC)c(O)c(OC)c3)[C@H]2CO[C@@H]2O[C@H](CO)[C@@H](O)[C@H](O)[C@H]2O)cc(OC)c1O | 81.6
COc1cc(/C=C/CO)cc(O[C@@H]2O[C@H](CO)[C@@H](O)[C@H](O)[C@H]2O[C@@H]2OC[C@](O)(CO)[C@H]2O)c1OC | 31.3
N#C[C@H](O[C@@H]1O[C@H](CO[C@@H]2O[C@H](CO)[C@@H](O)[C@H](O)[C@H]2O)[C@@H](O)[C@H](O)[C@H]1O)c1ccccc1 | 50.4
COc1cc([C@H]2c3c(cc(OC)c(O)c3OC)C[C@H](CO)[C@H]2CO)cc(OC)c1O | 57.5
COc1cc([C@H]2c3c(cc(OC)c(O)c3OC)C[C@H](CO)[C@H]2CO[C@@H]2O[C@H](CO)[C@@H](O)[C@H](O)[C@H]2O)cc(OC)c1O | 10.8
CC1=CC(=O)CC(C)(C)C1/C=C/[C@@H](C)O[C@@H]1O[C@H](CO[C@@H]2OC[C@](O)(CO)[C@H]2O)[C@@H](O)[C@H](O)[C@H]1O (stereo not given in full) | 13.6
COc1cc([C@H]2OC[C@H]3[C@@H]2CO[C@@H]3c2ccc(O)c(OC)c2)ccc1O | 51.3
CC(=O)OC[C@H]1O[C@@H](O[C@H](C)/C=C/[C@@]2(O)C(C)=CC(=O)CC2(C)C)[C@H](O)[C@@H](O)[C@@H]1O | 29.8
CC1=CC(=O)CC(C)(C)[C@@]1(O)/C=C/[C@@H](C)O[C@@H]1O[C@H](CO[C@@H]2OC[C@](O)(CO)[C@H]2O)[C@@H](O)[C@H](O)[C@H]1O | 35.1
COc1cc(/C=C/CO)cc(OC)c1O[C@H]1O[C@H](CO)[C@@H](O)[C@H](O)[C@H]1O | 14.6
